Values belong to the compound of their own block, whether it stands above or below them. Active and inactive are the calls of the source. No cut-off for these calls is given here.
What was measured:
[1] = target: T1, Histamine H3 receptor (Homo sapiens, UniProt Q9Y5N1); experiment: Displacement of [3H]NAMH from human histamine H3 receptor expressed in CHO cells; assay type: cell-based
[2] = target: Histamine H3 receptor (Rattus norvegicus, UniProt Q9QYN8); experiment: Displacement of [3H]NAMH from rat histamine H3 receptor expressed in CHO cells; assay type: cell-based
Chain of Histamine H3 receptor (Rattus norvegicus, UniProt Q9QYN8) (Q9QYN8 whole entry): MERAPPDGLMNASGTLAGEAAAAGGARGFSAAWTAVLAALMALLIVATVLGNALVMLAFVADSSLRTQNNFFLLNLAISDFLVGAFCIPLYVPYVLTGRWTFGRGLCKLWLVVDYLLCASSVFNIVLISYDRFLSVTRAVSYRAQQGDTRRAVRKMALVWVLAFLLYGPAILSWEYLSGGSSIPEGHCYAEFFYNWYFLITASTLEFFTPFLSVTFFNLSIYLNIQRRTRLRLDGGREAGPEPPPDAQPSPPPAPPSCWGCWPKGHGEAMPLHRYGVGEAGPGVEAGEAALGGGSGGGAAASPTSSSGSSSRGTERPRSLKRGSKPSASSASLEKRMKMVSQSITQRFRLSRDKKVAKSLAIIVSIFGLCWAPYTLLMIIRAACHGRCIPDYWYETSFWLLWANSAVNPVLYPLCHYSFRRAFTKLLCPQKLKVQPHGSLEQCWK

[3] = Ratio of drug level in brain to plasma in rat at 5 mg/kg, po measured after 6 hrs; assay type: ADME, organism-based; design: dose 5 mg/kg, route oral; conditions: read-out: BPR
[4] = target: Cytochrome P450 2C19 (Homo sapiens, UniProt P33261); experiment: Inhibition of CYP2C19; assay type: ADME
Chain of Cytochrome P450 2C19 (P33261 whole entry): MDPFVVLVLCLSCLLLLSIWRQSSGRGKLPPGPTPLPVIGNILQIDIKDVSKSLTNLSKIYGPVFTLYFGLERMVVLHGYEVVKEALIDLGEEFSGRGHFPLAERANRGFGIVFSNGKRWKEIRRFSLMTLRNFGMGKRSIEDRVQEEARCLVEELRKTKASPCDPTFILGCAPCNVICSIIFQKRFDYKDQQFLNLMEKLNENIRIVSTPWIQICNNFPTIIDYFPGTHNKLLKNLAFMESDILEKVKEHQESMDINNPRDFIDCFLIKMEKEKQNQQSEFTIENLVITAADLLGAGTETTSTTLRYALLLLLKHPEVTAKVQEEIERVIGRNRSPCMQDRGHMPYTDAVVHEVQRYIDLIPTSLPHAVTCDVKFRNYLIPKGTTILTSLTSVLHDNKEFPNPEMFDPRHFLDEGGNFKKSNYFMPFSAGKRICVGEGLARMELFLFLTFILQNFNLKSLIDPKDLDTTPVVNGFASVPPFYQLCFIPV

[5] = target: T1, Histamine H3 receptor; experiment: Antagonist activity at human histamine H3 receptor assessed as inhibition of [35S]-GTPgammaS binding; assay type: functional
[6] = system: Rattus norvegicus; experiment: Wake promoting activity in EEG/EMG Sprague-Dawley rat model at 10 to 30 mg/kg, ip measured after 9 hrs; assay type: functional, organism-based
[7] = Half life in monkey liver microsomes; assay type: ADME, Macaca mulatta, Microsome; conditions: rhesus monkey
[8] = Cmax in rat at 5 mg/kg, po; assay type: ADME, organism-based; design: dose 5 mg/kg, route oral; conditions: in vivo
[9] = Half life in mouse liver microsomes; assay type: ADME, Microsome
[10] = target: Cytochrome P450 2C9 (Homo sapiens, UniProt P11712); experiment: Inhibition of CYP2C9; assay type: ADME
Chain of Cytochrome P450 2C9 (P11712 whole entry): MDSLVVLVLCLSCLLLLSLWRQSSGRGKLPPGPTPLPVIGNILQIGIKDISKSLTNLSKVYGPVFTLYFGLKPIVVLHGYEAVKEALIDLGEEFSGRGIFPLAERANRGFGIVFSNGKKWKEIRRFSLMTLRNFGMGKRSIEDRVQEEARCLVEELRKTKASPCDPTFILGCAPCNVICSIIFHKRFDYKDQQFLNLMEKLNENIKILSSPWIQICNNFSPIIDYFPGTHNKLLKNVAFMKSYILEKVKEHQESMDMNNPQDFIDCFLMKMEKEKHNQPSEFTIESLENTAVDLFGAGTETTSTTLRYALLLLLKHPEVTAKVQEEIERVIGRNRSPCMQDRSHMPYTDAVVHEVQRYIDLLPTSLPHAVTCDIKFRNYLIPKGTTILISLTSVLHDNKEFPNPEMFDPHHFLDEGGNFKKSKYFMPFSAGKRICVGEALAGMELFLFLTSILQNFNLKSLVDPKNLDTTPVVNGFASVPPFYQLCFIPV

[11] = target: T2, Cytochrome P450 1A2 (Homo sapiens, UniProt P05177); experiment: Inhibition of CYP1A2; assay type: ADME
T2 sequence (P05177 whole entry): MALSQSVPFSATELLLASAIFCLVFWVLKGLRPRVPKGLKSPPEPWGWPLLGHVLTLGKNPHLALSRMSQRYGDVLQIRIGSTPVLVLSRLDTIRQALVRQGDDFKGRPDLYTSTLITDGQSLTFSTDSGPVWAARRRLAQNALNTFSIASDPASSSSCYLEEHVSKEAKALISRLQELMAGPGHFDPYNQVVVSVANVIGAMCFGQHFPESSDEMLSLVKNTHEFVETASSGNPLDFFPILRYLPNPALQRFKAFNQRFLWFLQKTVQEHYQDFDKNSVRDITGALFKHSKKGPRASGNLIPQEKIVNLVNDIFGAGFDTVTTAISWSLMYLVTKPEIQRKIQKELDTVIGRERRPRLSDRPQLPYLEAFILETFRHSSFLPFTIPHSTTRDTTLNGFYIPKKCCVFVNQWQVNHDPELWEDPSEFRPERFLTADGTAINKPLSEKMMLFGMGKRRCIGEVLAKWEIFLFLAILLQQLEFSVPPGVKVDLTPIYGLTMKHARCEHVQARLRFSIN

[12] = AUC in rat at 5 mg/kg, po; assay type: ADME, organism-based; design: dose 5 mg/kg, route oral; conditions: plasma
[13] = system: Rattus norvegicus; experiment: Inhibition of RAMH-induced dipsogenia in ip dosed rat; assay type: functional
[14] = Oral bioavailability in rat at 5 mg/kg; assay type: ADME, organism-based; conditions: in vivo
[15] = target: Cytochrome P450 2D6 (Homo sapiens, UniProt P10635); experiment: Inhibition of CYP2D6; assay type: ADME
Chain of Cytochrome P450 2D6 (P10635 whole entry): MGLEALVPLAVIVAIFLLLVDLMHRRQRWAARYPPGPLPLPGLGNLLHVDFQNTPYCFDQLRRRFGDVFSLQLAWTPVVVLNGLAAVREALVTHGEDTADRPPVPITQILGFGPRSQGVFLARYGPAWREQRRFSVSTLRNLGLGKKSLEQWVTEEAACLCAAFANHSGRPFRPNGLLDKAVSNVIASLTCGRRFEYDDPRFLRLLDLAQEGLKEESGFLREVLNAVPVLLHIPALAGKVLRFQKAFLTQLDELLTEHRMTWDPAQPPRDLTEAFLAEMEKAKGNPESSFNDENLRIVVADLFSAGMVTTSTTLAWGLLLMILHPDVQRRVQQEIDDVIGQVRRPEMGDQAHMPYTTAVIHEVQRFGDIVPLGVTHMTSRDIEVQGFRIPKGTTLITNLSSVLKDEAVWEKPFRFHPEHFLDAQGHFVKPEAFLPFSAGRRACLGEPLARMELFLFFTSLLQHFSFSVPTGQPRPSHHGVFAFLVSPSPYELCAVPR

[16] = Half life in rat liver microsomes; assay type: ADME, Microsome
[17] = target: Cytochrome P450 3A4 (Homo sapiens, UniProt P08684); experiment: Inhibition of CYP3A4; assay type: ADME
Chain of Cytochrome P450 3A4 (P08684 whole entry): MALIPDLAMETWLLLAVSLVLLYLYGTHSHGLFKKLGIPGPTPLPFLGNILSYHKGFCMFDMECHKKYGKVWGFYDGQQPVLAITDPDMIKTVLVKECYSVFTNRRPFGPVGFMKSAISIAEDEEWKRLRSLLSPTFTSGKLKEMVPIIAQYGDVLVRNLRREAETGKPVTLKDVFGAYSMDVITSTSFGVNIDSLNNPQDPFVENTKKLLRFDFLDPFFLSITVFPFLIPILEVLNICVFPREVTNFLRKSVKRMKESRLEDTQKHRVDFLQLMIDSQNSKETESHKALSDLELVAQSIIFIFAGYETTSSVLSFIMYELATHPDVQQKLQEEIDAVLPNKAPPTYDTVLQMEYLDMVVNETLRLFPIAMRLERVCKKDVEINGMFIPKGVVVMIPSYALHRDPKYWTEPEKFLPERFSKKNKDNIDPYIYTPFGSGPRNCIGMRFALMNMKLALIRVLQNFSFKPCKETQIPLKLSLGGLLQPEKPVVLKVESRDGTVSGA

[18] = Volume of distribution in rat at […], iv; assay type: ADME, organism-based; conditions: in vivo
[19] = Half life in rat at […], iv; assay type: ADME, organism-based; conditions: in vivo
[20] = Half life in dog liver microsomes; assay type: ADME, Canis lupus familiaris, Microsome
[21] = Clearance in rat at […], iv; assay type: ADME, organism-based; conditions: in vivo
[22] = Half life in human liver microsomes; assay type: ADME, Microsome
[23] = target: T1, Histamine H3 receptor; experiment: Inverse agonist activity at human histamine H3 receptor by [35S]-GTPgammaS binding assay; assay type: functional

T1 sequence (Q9Y5N1 whole entry): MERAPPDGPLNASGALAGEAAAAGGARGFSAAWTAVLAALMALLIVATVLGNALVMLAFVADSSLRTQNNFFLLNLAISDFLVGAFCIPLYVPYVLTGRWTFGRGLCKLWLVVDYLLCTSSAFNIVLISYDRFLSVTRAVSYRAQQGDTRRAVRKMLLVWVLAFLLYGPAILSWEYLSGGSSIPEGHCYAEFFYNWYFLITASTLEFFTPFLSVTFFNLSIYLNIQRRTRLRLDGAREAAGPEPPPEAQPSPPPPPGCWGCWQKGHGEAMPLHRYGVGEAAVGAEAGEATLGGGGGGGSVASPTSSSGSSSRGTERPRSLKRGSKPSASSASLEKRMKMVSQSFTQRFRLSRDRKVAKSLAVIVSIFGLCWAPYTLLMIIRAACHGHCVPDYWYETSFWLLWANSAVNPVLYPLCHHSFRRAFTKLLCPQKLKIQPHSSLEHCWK

SMILES: C[C@@H]1CCCN1CCCOc1ccc(C(=O)CN2CCN(C(=O)c3ccco3)CC2)cc1
- Ki [1]: 2 nM
- Ki [2]: 16 nM
- Kp at 6 h [3]: < 0.6

SMILES: C[C@@H]1CCCN1CCCOc1ccc(C(=O)CN2CCC(C#N)CC2)cc1
- Ki [1]: 6.3 nM
- Ki [2]: 23 nM

SMILES: C[C@@H]1CCCN1CCCOc1ccc(C(=O)CN2CCN(C(=O)Oc3ccc(F)cc3)CC2)cc1
- Ki [1]: 3 nM
- Ki [2]: 3.7 nM

SMILES: COC(=O)N1CCN(CC(=O)c2ccc(OCCCN3CCC[C@H]3C)cc2)CC1
- IC50 [4]: > 30 µM
- Kb [5]: 0.4 nM
- Activity [6]: inactive
- half-life [7]: > 40 min
- Ki [1]: 3.2 nM
- Cmax [8]: 128 ng/mL
- Ki [2]: 19 nM
- half-life [9]: > 40 min
- IC50 [10]: > 30 µM
- IC50 [11]: > 30 µM
- AUC [12]: 619 ng·h/mL
- ED50 [13]: 0.54 mg/kg
- inhibition [13]: Dose-dependent effect
- bioavailability [14]: 22%
- IC50 [15]: > 30 µM
- half-life [16]: > 40 min
- IC50 [17]: > 30 µM
- Vd [18]: 5.4 L/kg
- half-life [19]: 156 min
- half-life [20]: > 40 min
- clearance [21]: 24 mL/min/kg
- Kp at 6 h [3]: 4.3
- half-life [22]: > 40 min
- EC50 [23]: 0.9 nM

SMILES: C[C@@H]1CCCN1CCCOc1ccc(C(=O)CN2CCN(C(=O)c3cccs3)CC2)cc1
- Ki [1]: 4.2 nM
- Ki [2]: 9 nM

SMILES: CC(C)COC(=O)N1CCN(CC(=O)c2ccc(OCCCN3CCC[C@H]3C)cc2)CC1
- Ki [1]: 4.6 nM
- Ki [2]: 12 nM

SMILES: C[C@@H]1CCCN1CCCOc1ccc(C(=O)CN2CCN(C(=O)C(F)(F)F)CC2)cc1
- Ki [1]: 2.1 nM
- Ki [2]: 17 nM

Compounds with a lower Ki [1], results first:

- Ki [1]: 1.2 nM
- Ki [2]: 4 nM
SMILES: C[C@@H]1CCCN1CCCOc1ccc(C(=O)CN2CCN(C(=O)c3cc4ccccc4s3)CC2)cc1

- Ki [1]: 0.9 nM
- Ki [2]: 9.4 nM
- Kp at 6 h [3]: < 0.6
SMILES: C[C@@H]1CCCN1CCCOc1ccc(C(=O)CN2CCN(C(=O)c3cccn3C)CC2)cc1

- Ki [1]: 0.6 nM
- Ki [2]: 5.8 nM
SMILES: C[C@@H]1CCCN1CCCOc1ccc(C(=O)CN2CCN(C(=O)c3ccc(F)cc3)CC2)cc1
